Where a name gives a salt, the structure may show the parent alone. Read-outs that look alike come from different tables or passages of the source.
Legend:
[1] = In vitro flux of drug from saturated test solutions through human cadaver skin into an infinite sink, Franz diffusion cell; type: in vitro ADME
Experimental: For the evaluation of the degree of permeation enhancement, saturated test solutions of buprenorphine HCl in methyl laurate and/or sucrose cocoate were directly applied onto the epidermis side of human cadaver skin loaded between donor and receptor compartments of a standard Franz diffusion cell. The cell was kept at 35° C. during the diffusion study. […] The sucrose cocoate used for the test is commercially available in a 48 wt. % aqueous solution under the trade name Crodesta® SL-40, through Croda, Inc.

[2] = cited from earlier work
[3] = relative to morphine; background statement; cited from earlier work
[4] = In vitro release rate from the reservoir-type system into an infinite sink; details: Example 1 reservoir-type system
[5] = on over dosage; cited from earlier work
[6] = optimized delivery system, constant rate over extended time periods
[7] = Table 4, saturated in 48 wt. % sucrose cocoate aqueous solution
[8] = Table 4, saturated in 100 wt. % methyl laurate
[9] = Table 4, saturated in methyl laurate : 48 wt. % sucrose cocoate aqueous solution 3:7
[10] = Example 1 reservoir-type system, 35° C.

O=C(O)Cc1ccccc1Nc1c(Cl)cccc1Cl [Dichlofenac Sodium]
Flux, Solution A [1]: 14 μg/cm^2 /day
Flux, Solution A:B(3:7) [1]: 215 μg/cm^2 /day
Flux, Solution B [1]: 146 μg/cm^2 /day

C[C@]12CC[C@@H]3c4ccc(O)cc4CC[C@H]3[C@@H]1CC[C@@H]2O [Estradiol]
Flux, Solution B [1, 7]: 7.4 μg/cm^2 /day
Flux, Solution A [1, 8]: 4.3 μg/cm^2 /day

CC(C)Cc1ccc(C(C)C(=O)O)cc1 (stereo not drawn) [Ibuprofen]
Flux, Solution B [1, 7]: 547 μg/cm^2 /day
Flux, Solution A [1, 8]: 586 μg/cm^2 /day
Flux, Solution A:B(3:7) [1, 9]: 1897 μg/cm^2 /day

COC(=O)C1=C(C)NC(C)=C(C(=O)OC)C1c1ccccc1[N+](=O)[O-] [Nifedipine]
Flux, Solution B [1, 7]: 14 μg/cm^2 /day
Flux, Solution A [1, 8]: 15 μg/cm^2 /day
Flux, Solution A:B(3:7) [1, 9]: 23 μg/cm^2 /day

C[C@]12C=CC(=O)C=C1CC[C@@H]1[C@@H]2[C@@H](O)C[C@@]2(C)[C@H]1CC[C@]2(O)C(=O)CO [Prednisolone]
Flux, Solution B [1, 7]: 8 μg/cm^2 /day
Flux, Solution A [1, 8]: 51 μg/cm^2 /day
Flux, Solution A:B(3:7) [1, 9]: 188 μg/cm^2 /day

CO[C@]12CC[C@@]3(C[C@@H]1[C@](C)(O)C(C)(C)C)[C@H]1Cc4ccc(O)c5c4[C@@]3(CCN1CC1CC1)[C@H]2O5 [buprenorphine HCl]
amount delivered (Example 1 reservoir-type system, during the 72 hour period): 360 μg/cm^2
loaded amount transdermally delivered (Example 1 reservoir-type system, over 72 hours, initial load about 1800 μg/cm^2): about 20 wt. %
skin flux, Solution B ([1]; Table 3, saturated in 48 wt. % sucrose cocoate aqueous solution, 35° C.): 100 μg/cm^2 /day
skin flux, Solution A ([1]; Table 3, saturated in 100 wt. % methyl laurate, 35° C.): 8 μg/cm^2 /day
skin flux, Solution A:B(1:9) ([1]; Table 3, saturated in methyl laurate : 48 wt. % sucrose cocoate aqueous solution 1:9, 35° C.): 226 μg/cm^2 /day

CO[C@]12CC[C@@]3(C[C@@H]1[C@](C)(O)C(C)(C)C)[C@H]1Cc4ccc(O)c5c4[C@@]3(CCN1CC1CC1)[C@H]2O5 [buprenorphine]
steady state buprenorphine flux (Example 1 reservoir-type system, 3 wt. % buprenorphine HCl, 35° C.): about 5 μg/cm^2 /hr.
period over which flux stayed at a constant rate [10]: 72 h
time to steady state flux [10]: an hour
period over which steady state flux remained substantially constant (Example 3 laminated matrix-type system): 72 h
steady state buprenorphine flux (Example 3 laminated matrix-type system, 5.5 wt. % buprenorphine HCl): about 3.5 μg/cm^2 /hr.
in vitro human cadaver skin delivery rate (dual permeation enhancer sucrose cocoate + methyl laurate, full range): 1-10 μg/cm^2 /hr.
in vitro human cadaver skin delivery rate, preferable range (dual permeation enhancer sucrose cocoate + methyl laurate, preferably): 2-6 μg/cm^2 /hr.
liver and intestinal metabolism ([2]; background statement): extensive liver and intestinal metabolism
bioavailability ([2]; due to extensive liver and intestinal metabolism): poor bioavailability
analgesic activity, times more potent than morphine [3]: ~30 times
release through the microporous membrane ([4]; infinite sink): rapid release
loaded amount depleted by release into an infinite sink ([4]; within the first 12 hours): more than 70 wt. %
side effects [5]: severe side effects, particularly respiratory depression
skin irritation [6]: without uncomfortable skin irritation

Source: patent US4956171A, “Transdermal drug delivery using a dual permeation enhancer and method of performing the same” (Paco Pharmaceutical Services, Inc., priority 1989, dated 1990)
